Reference: patent US20150210740A1, “PSEUDOURIDIMYCIN (PUM) AND ITS DERIVATIVES” (NEW-ANTI-INFECTIVES CONSORTIUM S.C.A.R.L., priority 2012, published 2015)
Converted amounts (≈) assume the structure as drawn. Where two headings read alike, the source gives them in different places.

What was measured:
E. coli RNAP = target: T1, E. coli RNAP (Escherichia coli, UniProt P0A8T7+P0A8V2); experiment: RNAP inhibition, E. coli RNAP; type: biochemical
T1 construct: an RNAP purified from either Escherichia coli (Sigma Aldrich) or Bacillus subtilis; purchased Sigma Aldrich; host or cells: Escherichia coli
Procedure: (§1) The effect of PUM on bacterial RNAP is measured using an RNAP purified from either Escherichia coli (Sigma Aldrich) or Bacillus subtilis as described by Qi and Hulett (Qi Y, Hulett F M., Mol. Microbiol. 1998, 28(6):1187-1197). The bacterial RNAPs are used at 1.1 mg/ml, while the RNAP from bacteriophage T7 (Promega Corporation) is used at 20 U/ml. The nuclear extracts from HeLa cells (Human cervix carcinoma fibroblast; Promega Corporation) or NSO cells (non IgG secreting mouse myeloma lymphoblast; prepared as described by Dignam J D, Lebovitz R M, Roeder R G., Nucleic Acids Res. 1983, 11(5):1475-89) are used at 18 mg/ml. The reaction mixtures (50 μl) contain 40 mM Tris-HCl (pH 7.9), 6 mM MgCl2, 2 mM spermidine, 10 mM NaCl, 10 mM DTT, 10 μg/ml bovine serum albumin, 100 μM ATP, CTP and GTP, 2 μM UTP, 0.5 μCi [α-^32P]UTP, PUM at the desired concentration, RNAP and template DNA. The templates used for the transcription are the plasmid pGEM3Z (20 nM; Promega Corporation) for the bacterial and phagic RNAPs, and DNA derived from calf thymus (20 μg/ml; Sigma Aldrich) for the eukaryotic polymerases. After 30 min. (bacterial and phagic RNAPs) or 60 min. at 37° C., the amount of radioactivity obtained after precipitation with trichloroacetic acid is measured as previously described (Mariani R, Granata G, Maffioli S I, Serina S, Brunati C, Sosio M, Marazzi A, Vannini A, Patel D, White R, Ciabatti R. Bioorg Med Chem Lett. 2005, 15(16):3748-3752).

B. subtilis RNAP = target: T2, B. subtilis RNAP (Bacillus subtilis, UniProt P37870+P37871); experiment: RNAP inhibition, B. subtilis RNAP; type: biochemical
T2 construct: an RNAP purified from either Escherichia coli (Sigma Aldrich) or Bacillus subtilis; made in house; host or cells: Bacillus subtilis
T2 sequence (O35011 whole entry): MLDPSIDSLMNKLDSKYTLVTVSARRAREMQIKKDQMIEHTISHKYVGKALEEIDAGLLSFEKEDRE
T2 sequence (P37871 whole entry): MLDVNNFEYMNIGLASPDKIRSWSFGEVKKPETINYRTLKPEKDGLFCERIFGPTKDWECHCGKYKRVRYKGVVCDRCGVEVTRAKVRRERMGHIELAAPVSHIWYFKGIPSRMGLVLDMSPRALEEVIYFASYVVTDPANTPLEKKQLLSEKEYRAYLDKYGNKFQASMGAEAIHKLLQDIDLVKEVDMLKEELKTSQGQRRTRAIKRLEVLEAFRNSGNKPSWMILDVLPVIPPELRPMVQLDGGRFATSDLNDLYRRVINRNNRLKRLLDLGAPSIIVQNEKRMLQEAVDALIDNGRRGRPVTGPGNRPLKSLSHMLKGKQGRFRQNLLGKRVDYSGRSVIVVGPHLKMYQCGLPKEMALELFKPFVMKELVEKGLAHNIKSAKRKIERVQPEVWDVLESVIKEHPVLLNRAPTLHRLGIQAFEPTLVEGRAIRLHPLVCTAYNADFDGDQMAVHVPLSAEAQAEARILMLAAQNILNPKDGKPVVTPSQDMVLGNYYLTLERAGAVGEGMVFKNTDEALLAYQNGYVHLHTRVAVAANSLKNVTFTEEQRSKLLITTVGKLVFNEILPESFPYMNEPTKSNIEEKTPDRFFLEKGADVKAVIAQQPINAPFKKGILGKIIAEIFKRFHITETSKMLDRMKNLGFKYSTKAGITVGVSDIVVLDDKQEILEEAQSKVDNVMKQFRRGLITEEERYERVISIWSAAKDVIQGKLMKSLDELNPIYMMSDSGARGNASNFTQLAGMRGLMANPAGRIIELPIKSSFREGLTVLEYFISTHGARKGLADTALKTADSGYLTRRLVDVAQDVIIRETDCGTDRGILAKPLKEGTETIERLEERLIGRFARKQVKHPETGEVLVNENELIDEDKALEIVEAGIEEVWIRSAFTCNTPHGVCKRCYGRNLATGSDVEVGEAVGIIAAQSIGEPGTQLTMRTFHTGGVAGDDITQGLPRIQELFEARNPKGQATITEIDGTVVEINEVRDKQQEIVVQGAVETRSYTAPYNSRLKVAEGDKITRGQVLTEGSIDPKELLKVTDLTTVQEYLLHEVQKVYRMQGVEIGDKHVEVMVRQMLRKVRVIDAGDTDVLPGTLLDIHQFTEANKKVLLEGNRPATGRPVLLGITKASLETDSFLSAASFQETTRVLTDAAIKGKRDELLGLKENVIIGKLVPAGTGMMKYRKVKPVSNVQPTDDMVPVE
T2 sequence (P20429 whole entry, further chain): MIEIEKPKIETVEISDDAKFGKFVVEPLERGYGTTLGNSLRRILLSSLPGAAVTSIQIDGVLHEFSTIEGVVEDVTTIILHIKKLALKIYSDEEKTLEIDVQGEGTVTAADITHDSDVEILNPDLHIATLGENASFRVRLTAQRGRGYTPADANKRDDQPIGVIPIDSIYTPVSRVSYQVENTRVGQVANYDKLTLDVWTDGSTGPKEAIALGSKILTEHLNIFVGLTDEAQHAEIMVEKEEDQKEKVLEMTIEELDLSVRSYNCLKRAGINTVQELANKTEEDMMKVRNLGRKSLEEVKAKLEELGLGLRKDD
T2 sequence (P37870 whole entry): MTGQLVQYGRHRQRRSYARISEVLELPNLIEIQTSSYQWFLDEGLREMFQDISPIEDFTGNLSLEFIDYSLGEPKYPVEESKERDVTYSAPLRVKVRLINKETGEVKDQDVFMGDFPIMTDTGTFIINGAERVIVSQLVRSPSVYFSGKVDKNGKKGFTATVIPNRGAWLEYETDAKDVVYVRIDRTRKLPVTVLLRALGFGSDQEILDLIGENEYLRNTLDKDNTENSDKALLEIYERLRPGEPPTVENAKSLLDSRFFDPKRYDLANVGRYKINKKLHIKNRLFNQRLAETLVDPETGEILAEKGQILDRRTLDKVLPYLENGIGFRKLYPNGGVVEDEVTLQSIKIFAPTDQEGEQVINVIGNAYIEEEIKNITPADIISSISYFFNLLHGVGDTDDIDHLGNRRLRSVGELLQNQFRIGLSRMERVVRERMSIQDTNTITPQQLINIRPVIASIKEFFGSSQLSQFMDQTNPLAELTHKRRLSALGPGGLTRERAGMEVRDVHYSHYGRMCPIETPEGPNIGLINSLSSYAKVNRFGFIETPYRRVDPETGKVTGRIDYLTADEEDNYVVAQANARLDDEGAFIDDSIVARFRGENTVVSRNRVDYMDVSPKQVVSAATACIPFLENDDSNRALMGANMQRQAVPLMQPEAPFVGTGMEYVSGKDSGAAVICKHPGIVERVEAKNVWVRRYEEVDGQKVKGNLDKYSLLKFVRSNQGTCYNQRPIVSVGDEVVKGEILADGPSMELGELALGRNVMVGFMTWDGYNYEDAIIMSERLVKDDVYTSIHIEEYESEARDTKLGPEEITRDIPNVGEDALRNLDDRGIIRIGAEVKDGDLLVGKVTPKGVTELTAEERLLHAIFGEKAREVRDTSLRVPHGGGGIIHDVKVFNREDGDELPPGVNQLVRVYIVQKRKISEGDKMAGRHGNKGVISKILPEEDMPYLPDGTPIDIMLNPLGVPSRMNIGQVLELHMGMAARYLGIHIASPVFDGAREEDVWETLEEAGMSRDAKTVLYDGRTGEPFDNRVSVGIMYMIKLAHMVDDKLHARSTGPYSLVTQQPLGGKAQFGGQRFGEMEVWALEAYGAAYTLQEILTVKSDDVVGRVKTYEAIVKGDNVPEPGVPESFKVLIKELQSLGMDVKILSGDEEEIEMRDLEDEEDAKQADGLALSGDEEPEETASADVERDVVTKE
Procedure: as §1

B. subtilis β(Q469R) = B. subtilis β(Q469R) (Bacillus subtilis, UniProt P37870+P37871, Q469R); experiment: RNAP inhibition, rifampicin-resistant B. subtilis RNAP; type: biochemical
Sequence of B. subtilis β(Q469R) (P20429 whole entry): as the sequence (P20429 whole entry, further chain) above
Sequence of B. subtilis β(Q469R) (P37870 whole entry Q469R): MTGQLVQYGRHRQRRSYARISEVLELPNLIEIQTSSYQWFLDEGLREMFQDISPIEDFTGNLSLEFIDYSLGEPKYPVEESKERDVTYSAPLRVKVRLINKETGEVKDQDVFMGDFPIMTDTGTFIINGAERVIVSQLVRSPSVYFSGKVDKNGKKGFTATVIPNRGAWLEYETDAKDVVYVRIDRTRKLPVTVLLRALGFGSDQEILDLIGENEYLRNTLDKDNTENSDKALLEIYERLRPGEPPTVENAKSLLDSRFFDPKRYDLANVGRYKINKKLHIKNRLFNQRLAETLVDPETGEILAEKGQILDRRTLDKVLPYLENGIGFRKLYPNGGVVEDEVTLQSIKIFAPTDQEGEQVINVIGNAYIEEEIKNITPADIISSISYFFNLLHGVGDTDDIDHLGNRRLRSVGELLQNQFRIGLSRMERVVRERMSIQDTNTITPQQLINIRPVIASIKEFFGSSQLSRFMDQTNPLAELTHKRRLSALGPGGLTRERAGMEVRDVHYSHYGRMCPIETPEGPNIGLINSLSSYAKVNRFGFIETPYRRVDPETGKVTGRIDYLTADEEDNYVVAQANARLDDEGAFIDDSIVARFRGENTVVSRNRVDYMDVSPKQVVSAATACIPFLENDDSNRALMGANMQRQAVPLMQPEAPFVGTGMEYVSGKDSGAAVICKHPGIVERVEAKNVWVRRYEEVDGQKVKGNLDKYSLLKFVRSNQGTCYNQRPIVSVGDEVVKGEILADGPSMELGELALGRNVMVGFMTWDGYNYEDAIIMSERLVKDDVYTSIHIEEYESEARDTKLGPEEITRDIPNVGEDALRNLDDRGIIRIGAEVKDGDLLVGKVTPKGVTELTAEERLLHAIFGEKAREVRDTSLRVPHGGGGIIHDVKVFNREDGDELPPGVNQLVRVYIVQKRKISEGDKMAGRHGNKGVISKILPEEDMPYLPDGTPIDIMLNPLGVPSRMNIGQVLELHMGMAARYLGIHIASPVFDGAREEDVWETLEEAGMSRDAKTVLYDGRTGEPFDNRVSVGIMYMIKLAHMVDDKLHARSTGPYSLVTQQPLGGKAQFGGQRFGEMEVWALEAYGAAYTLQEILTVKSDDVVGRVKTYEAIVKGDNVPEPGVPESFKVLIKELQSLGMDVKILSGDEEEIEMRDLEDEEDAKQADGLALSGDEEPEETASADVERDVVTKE
Sequence of B. subtilis β(Q469R) (P37871 whole entry): as the sequence (P37871 whole entry) above
Sequence of B. subtilis β(Q469R) (O35011 whole entry, further chain): as the sequence (O35011 whole entry) above

T7 RNAP = target: T3, T7 RNAP (Escherichia phage T7, UniProt P00573); experiment: RNAP inhibition, T7 RNAP; type: biochemical, bacteriophage T7
T3 construct: purchased Promega Corporation
T3 sequence (P00573 whole entry): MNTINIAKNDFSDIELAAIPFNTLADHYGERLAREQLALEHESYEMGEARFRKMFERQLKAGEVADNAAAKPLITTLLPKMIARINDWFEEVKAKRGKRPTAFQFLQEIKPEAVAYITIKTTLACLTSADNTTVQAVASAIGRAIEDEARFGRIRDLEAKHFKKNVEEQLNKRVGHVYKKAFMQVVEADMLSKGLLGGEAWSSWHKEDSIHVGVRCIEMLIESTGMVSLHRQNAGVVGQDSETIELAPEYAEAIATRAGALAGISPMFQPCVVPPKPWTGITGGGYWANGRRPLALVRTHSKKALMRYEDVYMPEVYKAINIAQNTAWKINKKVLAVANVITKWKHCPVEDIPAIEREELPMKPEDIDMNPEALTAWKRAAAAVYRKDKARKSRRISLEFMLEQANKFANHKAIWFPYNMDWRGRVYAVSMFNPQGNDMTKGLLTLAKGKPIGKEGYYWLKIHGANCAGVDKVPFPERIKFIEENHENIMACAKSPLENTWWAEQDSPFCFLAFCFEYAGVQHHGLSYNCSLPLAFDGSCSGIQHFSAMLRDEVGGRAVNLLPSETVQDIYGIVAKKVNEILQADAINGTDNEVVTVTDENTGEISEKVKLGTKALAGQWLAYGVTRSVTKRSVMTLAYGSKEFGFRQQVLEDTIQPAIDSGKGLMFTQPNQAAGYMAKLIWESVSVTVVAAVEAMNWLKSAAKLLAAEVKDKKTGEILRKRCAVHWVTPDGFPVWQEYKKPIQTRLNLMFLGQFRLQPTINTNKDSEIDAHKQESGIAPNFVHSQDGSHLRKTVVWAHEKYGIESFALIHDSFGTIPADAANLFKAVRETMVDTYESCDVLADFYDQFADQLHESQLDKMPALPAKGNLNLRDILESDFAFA
Procedure: as §1, with “The templates used for the transcription are the plasmid pGEM3Z (20 nM; Promega Corporation) for the bacterial and phagic RNAPs, and DNA derived from calf thymus (20 μg/ml; Sigma Aldrich) for the eukaryotic polymerases. After 30 min.” left out

HeLa nuclear extract = experiment: RNAP inhibition, HeLa nuclear extract; type: biochemical, Human
NSO nuclear extract = experiment: RNAP inhibition, NSO nuclear extract; type: biochemical, mouse
bacterial RNAP [1] = tested on: T4, bacterial RNAP; experiment: Inhibition of bacterial RNAP; type: biochemical; details: RNAP of both Gram-positive and Gram-negative bacteria; read-out: IC50 (concentration producing 50% inhibition of enzyme activity), bacterial RNAP
T4 construct: other: RNAP of both Gram-positive and

Streptococcus pyogenes = experiment: Growth inhibition (MIC), Streptococcus pyogenes; type: cell-based; details: Streptococcus pyogenes L49
Procedure: (§2) The antibacterial activity is determined by evaluating the effect on the growth kinetics as described (Holowachuka S, Bal'ab M, Buddington R., 2003, J. Microbiol. Meth. 55, 441-446). Micro-organisms are grown in either Todd Hewitt medium (Streptococcus pyogenes) or cation-adjusted Mueller Hinton Broth (S. aureus, E. faecium, M catarrhalis, E. coli, P. aeruginosa, S. maltophilia) on 96-well microtiter plates. Each bacterial strain is inoculated with 5×10^4 CFU/ml and incubated at 37° C. on the Synergy 2 reader (BioTek), and the optical density is monitored at 595 nm for 48 h.

Streptococcus pneumoniae = experiment: Growth inhibition (MIC), Streptococcus pneumoniae; type: cell-based
Procedure: [Worded in the source for another organism; used here, by the source, with some conditions changed.] as §2

[2] = tested on: Neisseria meningitidis L1612; experiment: Growth inhibition (MIC), Neisseria meningitidis; type: cell-based
[3] = tested on: Haemophilus influenzae L3296; experiment: Growth inhibition (MIC), Haemophilus influenzae; type: cell-based
[4] = tested on: Moraxella catarrhalis L3294; experiment: Growth inhibition (MIC), Moraxella catarrhalis; type: cell-based
Procedure: as §2

S. pyogenes C203 = experiment: S. pyogenes peritonitis model in mice; type: in vivo, ICR female mice; details: for ED50: Streptococcus pyogenes
Procedure: ICR female mice (Harlan Italia) weighing 23-25 g are acclimated (23±2° C., humidity, 55±10% humidity) for one week before the experiment. The infection is induced by intraperitoneal injection of 4×10^3 CFU of S. pyogenes […] in 0.5 mL of saline containing 1% peptone. 48-72 h after infection, this inoculum leads to a mortality of at least 95% in untreated controls. Eight mice per group for each dose are treated with 0.25 mL of PUM prepared in 5% dextrose. Two different experiments were performed: in the first experiment, PUM is administered intravenously 10 min. after the infection and 6 hours later; in the second experiment, PUM is administered as a single intravenous or subcutaneous dose 10 min. after infection. The mortality of the animals is recorded daily. The ED50 (50% effective dose) and 95% confidence limits are calculated as described (Finney, D. J. 1952. The Spearman-Kärber method. P. 524-30. In D. J. Finney (ed.) Statistical method in biological assay. Charles Griffin & Company Limited, London) for surviving animals at day 7 at each dose.

[5] = tested on: Gram-positive and Gram-negative susceptible, resistant and multi-resistant pathogenic bacteria; experiment: Growth inhibition of pathogenic bacteria; type: cell-based; details: human serum 30%
Procedure: as §2

bacterial RNAP [6] = target: T5, bacterial RNAP (UniProt P0A8T7+P0A8V2); experiment: Inhibition of bacterial RNAP; type: biochemical; details: read-out: IC50, bacterial RNAP; reaction mixture used as is for the bioactivity tests
T5 construct: other: reaction mixture used as is for the bioactivity tests

SMILES: CO[C@H]1/C=C/O[C@@]2(C)Oc3c(C)c(O)c4c(O)c(c(/C=N/N5CCN(C)CC5)c(O)c4c3C2=O)NC(=O)/C(C)=C\C=C\[C@H](C)[C@H](O)[C@@H](C)[C@@H](O)[C@@H](C)[C@H](OC(C)=O)[C@@H]1C [Rif, rifampicin, reference compound]
- IC50 (E. coli RNAP): 60 nM
- IC50 (B. subtilis RNAP): 50 nM
- IC50 (B. subtilis β(Q469R)): > 121000 nM
- IC50 (T7 RNAP): > 121000 nM

SMILES: N=C(N)NCC(=O)N(O)[C@@H](CCC(N)=O)C(=O)NC[C@H]1O[C@@H](c2c[nH]c(=O)[nH]c2=O)[C@H](O)[C@@H]1O [PUM, Pseudouridimycin]
- IC50 (E. coli RNAP): 300 nM
- IC50 (B. subtilis RNAP): 400 nM
- IC50 (B. subtilis β(Q469R)): 100 nM
- cross-resistance with rifampicin (B. subtilis β(Q469R); RNAP inhibition, Table 1): without showing any cross-resistance with rifampicin
- IC50 (HeLa nuclear extract): > 74000 nM
- IC50 (NSO nuclear extract): 205000 nM
- IC50 (T7 RNAP): > 205000 nM
- IC50 (bacterial RNAP [1]): 300 to 400 nM
- MIC (Streptococcus pyogenes; human serum 30% present): 2 µg/mL
- MIC (Streptococcus pyogenes; human serum absent, read-out: MIC): 2 µg/mL
- MIC (Streptococcus pneumoniae; Streptococcus pneumoniae L44, human serum 30% present): 2 µg/mL
- MIC (Streptococcus pneumoniae; Streptococcus pneumoniae L44, human serum absent): 3 µg/mL
- MIC (Streptococcus pneumoniae; Streptococcus pneumoniae L899-Rif^R, human serum absent): 3 µg/mL
- MIC (Streptococcus pneumoniae; Streptococcus pneumoniae L1407-Azi^R, human serum absent): 3 µg/mL
- MIC (Streptococcus pneumoniae; Streptococcus pneumoniae L1542-Ami^REry^RCli^RGen^RTet^R, human serum absent): 3 µg/mL
- MIC (Streptococcus pneumoniae; Streptococcus pneumoniae L2868-8 MDR, human serum absent): 3 µg/mL
- MIC (Streptococcus pneumoniae; Streptococcus pneumoniae L3909-Pen^REry^RChl^RCtr^R, human serum absent): 2 µg/mL
- MIC (Streptococcus pneumoniae; Streptococcus pneumoniae ND061311-Pen^RAzi^R, human serum absent): 3 µg/mL
- MIC [2]: 10 µg/mL (≈ 20.6 µM)
- MIC [3]: 0.8 µg/mL (≈ 1.64 µM)
- MIC [4]: 0.8 µg/mL
- ED50 (S. pyogenes C203; C203, iv, iv: 10 min. and 6 h post-infection, survival at day 7): 10 mg/kg
- ED50 (S. pyogenes C203; C203, iv, iv: 10 min. post-infection, survival at day 7): 20 mg/kg
- ED50 (S. pyogenes C203; C203, murine model of Streptococcus peritonitis, regimen not given): 10 mg/kg
- ED50 (S. pyogenes C203; C203, sc, sc: 10 min. post-infection, survival at day 7): 20 mg/kg
- effectiveness after intravenous versus subcutaneous administration (S. pyogenes C203; murine Streptococcus peritonitis): comparable effectiveness
- effect of human serum on antibacterial activity [5]: not affected by the presence of human serum

SMILES: N=C(N)NCC(=O)N(O)[C@@H](CCC(=O)NCc1ccccc1)C(=O)NC[C@H]1O[C@@H](c2c[nH]c(=O)[nH]c2=O)[C@H](O)[C@@H]1O [compound III, PUM benzylamide]
- IC50 (bacterial RNAP [6]): 4000 nM

SMILES: CCc1c(Cl)c(O)c(Cl)c(O)c1C(=O)O[C@H]1[C@H](O)[C@H](OC)[C@H](OC/C2=C\C=C\C[C@H](O)/C(C)=C/[C@H](CC)[C@@H](O[C@@H]3OC(C)(C)[C@@H](OC(=O)C(C)C)[C@H](O)[C@@H]3O)/C(C)=C/C(C)=C/C[C@@H]([C@@H](C)O)OC2=O)O[C@@H]1C [Fdx, fidaxomicin, reference compound]
- IC50 (E. coli RNAP): 5500 nM
- IC50 (B. subtilis RNAP): 900 nM
- IC50 (B. subtilis β(Q469R)): 700 nM
- IC50 (HeLa nuclear extract): > 92000 nM
- IC50 (NSO nuclear extract): 42000 nM
